Experiments:
S. aureus FRI 100 = test: Minimum biofilm inhibitory concentration (bMIC); assay type: cell-based, Staphylococcus aureus; conditions: S. aureus FRI 100 biofilm
Method: Determination of the minimum biofilm inhibitory concentration of growth (bMIC) and biofilm eradication concentration (MBEC). Overnight cultures of C. crescentus and S. aureus were grown and diluted 100-fold into appropriate nutrient media. Aliquots of the diluted suspension were transferred into wells of 96-well plates (150 μL/well). 2-fold serial dilutions were performed for compound-containing wells. For every experiment, three replicates for each compound concentration tested were included. After transferring aliquots of the suspension, the plates were closed with specialized lids that have protruding pins (Nunc STP System), and the plates were sealed using Parafilm®. The plates were incubated in a static incubator at 30° C. (C. crescentus) or 37° C. (S. aureus) for 24 hours. After the cells had formed biofilms on the surface of the pins, the pins were rinsed by dipping them in M2 (C. crescentus) or PBS (S. aureus) solutions. To rinse the pins, clean, sterile 96-well plates were used (aliquots of 200 μL/well); each rinse lasted 10 sec. After washing away planktonic cells loosely bound to biofilms, the pins were inserted into a 96-well plate that was pre-aliquoted with nutrient media containing antibiotics (2-fold dilutions, a final volume of 150 μL/well). The plates were sealed with Parafilm®, and incubated for 17 hours, and the bMIC was measured at the end of the incubation by visual inspection. […] The plates were sealed with Parafilm®, incubated for 24 hours, and the MBEC was measured at the end of the incubation by visual inspection.
Membrane-active compounds are also efficient at eradicating biofilm-associated cells (Table 2). […] To determine the efficacy of antibiotics against biofilms, the minimum biofilm inhibitory concentration (bMIC) and the minimum biofilm eradication concentration (MBEC) were measured. […] After 24 hours of exposure to compounds, the lowest concentration of antibiotic that inhibited planktonic cell growth in the wells (bMIC) was determined.

C. crescentus CB15N [1] = test: Minimum stationary-bactericidal concentration (MSC); assay type: cell-based, Caulobacter crescentus; conditions: for MSC: C. crescentus CB15N, stationary cells, 24 hours
Method: Determination of the Minimum Stationary-Bactericidal Concentration.
Cultures of C. crescentus (24 hour incubation) and S. aureus cells (5 day incubation) were grown from single colonies. Cells were collected by centrifugation (8500 rpm for 2.5 minutes) and re-suspended in M2 salt solution (for C. crescentus; 1.74 g/L Na2HPO4, 1.06 g/L KH2PO4, and 0.5 g/L NH4Cl) or phosphate-buffered saline (for S. aureus; PBS, Fisher Scientific). The centrifugation and re-suspension was repeated two more times. After the repeated washing steps, the cell suspension was diluted 10-fold to achieve approximately 10^8 cells/mL. Aliquots of the diluted cell suspension were transferred into wells of a 96-well plate (100 μL/well), and 2-fold serial dilutions were performed to test a range of antibiotic concentrations. The plate was sealed with Parafilm® and incubated for 24 hours at room temperature in the dark. After incubation, 50 μl was removed from each well to spread on nutrient agar plates (1.5% agar in PYE for C. crescentus, and LB for S. aureus). The colonies on each plate were counted after growing the cells for 1-2 days. For determining the kinetics of bactericidal activity of DCAP on stationary cultures, the washed cells were diluted by 100-fold in appropriate solutions and tested using a single concentration of the compound while including a DMSO control sample. Cell suspensions were kept in closed microcentrifuge tubes instead of the wells of 96-well plates. 100 μL of the suspensions was removed for plating at each time point. All MSC experiments were performed in static conditions.
In addition to its activity against actively growing bacteria, DCAP kills cells in stationary phase (Table 3). This property was tested against C. crescentus and S. aureus. […] To ensure that bacteria were deprived of nutrients, the cells were grown into late stationary phase (i.e., 24 hours for C. crescentus and 5 days for S. aureus). These cells were collected, suspended in isotonic solutions devoid of amino acids or sugars, and treated with a small molecule (DMSO, DCAP, CCCP or ampicillin). Cell viability was measured over time by plating culture aliquots on non-selective, solid growth media. The minimum concentration of antibiotic required to completely eliminate colony formation was designated as the minimum stationary-bactericidal concentration (MSC). […] CCCP inhibited the proliferation of C. crescentus cells regardless of their physiological status. However, the MSC of CCCP for S. aureus was >300-fold higher than the MIC. This dramatic decrease in the effectiveness of CCCP in S. aureus may be due to changes in membrane composition as cells adjust their metabolism in nutrient-deprived conditions.

C. crescentus CB15N [2] = test: Minimum biofilm eradication concentration (MBEC); assay type: cell-based, Caulobacter crescentus
Method: Determination of the minimum biofilm inhibitory concentration of growth (bMIC) and biofilm eradication concentration (MBEC). Overnight cultures of C. crescentus and S. aureus were grown and diluted 100-fold into appropriate nutrient media. Aliquots of the diluted suspension were transferred into wells of 96-well plates (150 μL/well). 2-fold serial dilutions were performed for compound-containing wells. For every experiment, three replicates for each compound concentration tested were included. After transferring aliquots of the suspension, the plates were closed with specialized lids that have protruding pins (Nunc STP System), and the plates were sealed using Parafilm®. The plates were incubated in a static incubator at 30° C. (C. crescentus) or 37° C. (S. aureus) for 24 hours. After the cells had formed biofilms on the surface of the pins, the pins were rinsed by dipping them in M2 (C. crescentus) or PBS (S. aureus) solutions. To rinse the pins, clean, sterile 96-well plates were used (aliquots of 200 μL/well); each rinse lasted 10 sec. After washing away planktonic cells loosely bound to biofilms, the pins were inserted into a 96-well plate that was pre-aliquoted with nutrient media containing antibiotics (2-fold dilutions, a final volume of 150 μL/well). The plates were sealed with Parafilm®, and incubated for 17 hours, and the bMIC was measured at the end of the incubation by visual inspection. After the bMIC run, the rinse steps were repeated to remove planktonic cells, and the pins were inserted into a 96-well plate that was pre-aliquoted with drug-free nutrient media (aliquots of 150 μL/well). The plates were sealed with Parafilm®, incubated for 24 hours, and the MBEC was measured at the end of the incubation by visual inspection.
After performing bMIC experiments, biofilms growing on the pins of the lid were transferred to nutrient media devoid of antibiotics to measure the minimum concentration of antibiotic that prevented planktonic growth from biofilms in antibiotic-free nutrient media (MBEC). MBEC indicates whether the exposure to antimicrobial agent used during the bMIC experiment sterilized biofilm-associated cells. […] CCCP was the only effective antibiotic against S. aureus biofilms. Since CCCP was not as effective as DCAP at killing stationary cells, it was hypothesized that this variability in efficacy of membrane-active drugs is in part caused by changes in membrane composition (i.e., membrane proteins and lipid content) at different developmental stages of bacterial cells. […]

`N#CC(C#N)=NNc1cccc(Cl)c1` [CCCP, carbonyl cyanide m-chlorophenyl hydrazone] was tested. Which bMIC (S. aureus FRI 100) did it give?
Its bMIC is 2.5 µM.

What about the MSC (C. crescentus CB15N [1]) of the same compound?
Its MSC is 2.5 µM.

And the MBEC (C. crescentus CB15N [2])?
The MBEC was 5 µM.

What does the source list for `OCC(CO)(CO)NCC(O)Cn1c2ccc(Cl)cc2c2cc(Cl)ccc21` (stereo not shown) [DCAP, 2-((3-(3,6-dichloro-9H-carbazol-9-yl)-2-hydroxypropyl)amino)-2-(hydroxymethyl)propane-1,3-diol]?
bMIC (S. aureus FRI 100): 100 µM; Minimum time required to obtain the MSC (C. crescentus CB15N [1]; C. crescentus): 2 h; MSC (C. crescentus CB15N [1]): 20 µM; MBEC (C. crescentus CB15N [2]): 40 µM
